Results: patent US7897602B2, “Indolinone compounds as kinase inhibitors” (Development Center for Biotechnology, priority 2009, dated 2011)

Experiments:
Flt3 kinase = target: T1, Flt3 kinase (Homo sapiens, UniProt P36888); assay: Flt3 kinase assay (33P incorporation into Poly(Glu-Tyr)); type: biochemical; details: 100 nM test compound; read-out: Inhibition at 100 nM (%) Flt-3
T1 construct: recombinant N-terminal 6×His-tagged Flt3 kinase domain construct expressed from baculovirus; 6xHis (N); made in house
T1 sequence (P36888 610-943 limits assumed): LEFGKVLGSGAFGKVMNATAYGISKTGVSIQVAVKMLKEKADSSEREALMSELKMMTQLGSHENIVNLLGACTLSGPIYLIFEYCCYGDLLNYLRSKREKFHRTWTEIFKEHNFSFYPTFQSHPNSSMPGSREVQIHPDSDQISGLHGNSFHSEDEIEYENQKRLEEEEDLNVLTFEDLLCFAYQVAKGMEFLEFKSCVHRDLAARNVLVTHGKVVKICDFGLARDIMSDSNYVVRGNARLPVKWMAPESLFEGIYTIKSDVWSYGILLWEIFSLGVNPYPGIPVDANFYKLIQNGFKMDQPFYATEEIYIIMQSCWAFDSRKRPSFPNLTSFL
In short: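 Baculovirus-expressed His-tagged Flt3 kinase domain (5 ng) with Poly(Glu-Tyr) 4:1 substrate, 100 μM ATP plus [33P]-γ-ATP, in MOPS pH 7.0 buffer, 30 min at 30 °C. Compound tested at a single 100 nM concentration; filter-bound radioactivity counted and percent inhibition calculated relative to DMSO control.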

[1] = Body weight of mice in the COLO 205 tumor study; type: in vivo; details: NOD/SCID mice with COLO 205 tumors; i.v. 5, 10 or 20 mg/kg qd × 14
Description: (§1) COLO 205 (1×10^6 cell/mouse) tumor cells were subcutaneously injected into the right flank of 5 week old male NOD/SCID mice (BioLASCO, Taiwan). Tumor volume was measured with a digital caliper once tumor was palpable (within 10 to 15 days after implantation). Compound treatment was started after 1-3 weeks when the tumors had reached an average volume of ˜50 to 100 mm^3. Mice were divided into 5 groups as listed in Table 4 below and were given intravenous injections with test compound at different dosage (5 mg/kg, 10 mg/kg, or 20 mg/kg), SU11248 (20 mg/kg, positive control), or vehicle control (DMSO:Cremophor:PBS (pH 7.4)=[…]) one time every day. The test compound, DCB-70055, was formulated in a solution of 5% DMSO, 10% Cremophor, and 85% PBS. The positive control, SU11248, was dissolved in 100% PBS. Body weights of the mice were measured every two to three days and the tumor sizes in different groups of mice were measured by digital caliper every two to three days.

VEGFR2 kinase = target: T2, VEGFR2 kinase (Homo sapiens, UniProt P35968); assay: VEGFR2 kinase assay (33P incorporation into Poly(Glu-Tyr)); type: biochemical; details: 500 nM test compound; read-out: Inhibition at 500 nM (%) VEGFr-2
T2 construct: recombinant N-terminal 6×His-tagged VEGFR2 kinase domain construct expressed by baculovirus; 6xHis (N); made in house
In short: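 Recombinant baculovirus-expressed N-terminal His6-tagged VEGFR2 kinase domain (6.25 ng) phosphorylated poly(Glu-Tyr) 4:1 with 100 μM ATP plus [33P]-γ-ATP in MOPS pH 7.0, 30 °C, 30 min. Test compound was at 500 nM (4% DMSO). Filter-retained radioactivity relative to DMSO control gave % inhibition.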

COLO 205 tumor cells = assay: In vivo anti-cancer activity, COLO 205 subcutaneous tumor model; details: COLO 205 s.c. tumors in NOD/SCID mice; i.v. 5, 10 or 20 mg/kg qd × 14
Description: as §1

T2 sequence (P35968 834-1162 limits assumed): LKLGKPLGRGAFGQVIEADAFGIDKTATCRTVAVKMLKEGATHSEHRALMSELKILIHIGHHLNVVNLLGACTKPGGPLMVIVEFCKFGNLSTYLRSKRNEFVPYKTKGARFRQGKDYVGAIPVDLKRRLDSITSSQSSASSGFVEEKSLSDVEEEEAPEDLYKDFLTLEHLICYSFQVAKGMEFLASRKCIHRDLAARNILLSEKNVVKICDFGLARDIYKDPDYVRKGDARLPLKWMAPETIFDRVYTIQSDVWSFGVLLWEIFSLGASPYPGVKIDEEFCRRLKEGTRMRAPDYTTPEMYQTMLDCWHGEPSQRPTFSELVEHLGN

Question: With `O=C(O)CCc1c(/C=C2\C(=O)Nc3ccc(F)cc32)[nH]c2c1C(=O)CCC2` [DCB-70055, (Z)-5-fluoro-3-((3-carboxyethyl-4-oxo-4,5,6,7-tetrahydro-1H-indol-2-yl)methylene)indolin-2-one] as the compound, how does the inhibition at 0.1 µM (Flt3 kinase) read?
Answer: 86.5%

Question: What about the “weight loss (body weight)” value [1] of the same compound?
Answer: without inducing significant weight loss

Question: And the inhibition at 0.5 µM (VEGFR2 kinase)?
Answer: 91.2%

Question: What about the “tumor growth in vivo” value (COLO 205 tumor cells) of the same compound?
Answer: inhibited tumor growth in vivo
